In patent publication US20250230193A1, “CYCLIC COMPOUND HAVING SELECTIVE KRAS INHIBITORY EFFECT ON HRAS AND NRAS” (CHUGAI SEIYAKU KABUSHIKI KAISHA, priority 2022, published 2025):
Where a SMILES comes first, the peptide text is derived from it. Bridges are numbered along the chain shown (N, C = ends). [ ]: non-standard residue; d: D form. The star is where a group is joined. hPhe(3-Cl-4-CF3) = N[C@@H](CCc1ccc(C(F)(F)F)c(Cl)c1)C(=O)O; NPrPhe(4-CF3) = CCCN[C@@H](Cc1ccc(C(F)(F)F)cc1)C(=O)O; 3Oxa8azabicyclo(3.2.1)octane = C1CC2COCC1N2*; NMeGly(cPent) = CN[C@H](C(=O)O)C1CCCC1; NMeD = CN[C@@H](CC(=O)O)C(=O)O; NMeL = CN[C@@H](CC(C)C)C(=O)O; Ac5c = NC1(C(=O)O)CCCC1; Sar = CNCC(=O)O

Legend:
[1] = biological target: GDP-bound HRAS wild-type protein (Homo sapiens, UniProt P01112); test: Binding to HRAS by surface plasmon resonance (SPR), Single Cycle Kinetics; details: SPR
[2] = biological target: GDP-bound NRAS wild-type protein (Homo sapiens, UniProt P01111); test: Binding to NRAS by surface plasmon resonance (SPR), Single Cycle Kinetics; details: SPR
[3] = GDP-bound HRAS wild-type vs GDP-bound KRAS wild-type
[4] = GDP-bound NRAS wild-type vs GDP-bound KRAS wild-type

Sequence of GDP-bound NRAS wild-type protein (P01111 whole entry): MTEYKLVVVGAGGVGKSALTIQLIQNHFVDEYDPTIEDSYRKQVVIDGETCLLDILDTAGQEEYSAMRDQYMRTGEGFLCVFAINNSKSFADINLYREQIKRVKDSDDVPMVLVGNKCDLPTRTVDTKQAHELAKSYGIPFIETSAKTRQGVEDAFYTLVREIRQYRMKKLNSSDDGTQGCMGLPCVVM
Sequence of GDP-bound HRAS wild-type protein (P01112 whole entry): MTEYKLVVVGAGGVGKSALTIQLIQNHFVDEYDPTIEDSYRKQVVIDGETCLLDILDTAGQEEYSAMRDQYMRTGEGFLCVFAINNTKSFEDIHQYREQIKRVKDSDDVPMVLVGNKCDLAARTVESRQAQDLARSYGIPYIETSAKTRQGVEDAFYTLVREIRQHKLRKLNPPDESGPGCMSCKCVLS

Row | SMILES | HRAS/KRAS (ratio of KD value with respect to GDP-bound HRAS wild-type protein to KD value with respect to KRAS) ([1]; KD ratio HRAS/KRAS) | NRAS/KRAS (ratio of KD value with respect to GDP-bound NRAS wild-type protein to KD value with respect to KRAS) ([2]; KD ratio NRAS/KRAS) | HRAS/KRAS (ratio of KD value with respect to HRAS to KD value with respect to KRAS) [1, 3] | NRAS/KRAS (ratio of KD value with respect to NRAS to KD value with respect to KRAS) [2, 4] | further results
1 | CC[C@H](C)[C@@H]1NC(=O)[C@H](CC(C)C)N(C)C(=O)C[C@@H](C(=O)N(C)C)N(C)C(=O)[C@H](C2CCCC2)N(C)C(=O)C2(CCCC2)NC(=O)[C@@H]2CCCN2C(=O)[C@H](CCc2ccc(C(F)(F)F)c(Cl)c2)NC(=O)CN(C)C(=O)[C@H](Cc2ccc(C)cc2)N2CC=C(C)C[C@@H](C2=O)N(C)C(=O)CN(C)C1=O [PP0620] | C (A compound having a KD ratio of 0.1 or more and less than 3 is denoted as C) | C (A compound having a KD ratio of 0.1 or more and less than 3 is denoted as C) |  |  | 
2 | CCO[C@@H]1C[C@H]2C(=O)NC3(CC(C)(C)C3)C(=O)N(C)[C@@H](C(CC)CC)C(=O)N(C)[C@H](C(=O)N(C)C)CC(=O)N(C)[C@H]3CCCCC/C=C/c4ccc(cc4)C[C@@H](C(=O)N(C)CC(=O)N[C@@H](CCc4cc(F)c(C(F)(F)F)c(F)c4)C(=O)N2C1)N1CC/C=C\C[C@@H](C1=O)N(C)C(=O)CN(C)C(=O)[C@H]([C@@H](C)CC)NC3=O [PP3048] |  |  |  |  | HRAS/KRAS (ratio of KD value with respect to GDP-bound HRAS wild-type protein to KD value with respect to KRAS) ([1]; KD ratio HRAS/KRAS, GDP-bound wild-type proteins): A (a compound having 10 or more and less than 20 is denoted as A); NRAS/KRAS (ratio of KD value with respect to GDP-bound NRAS wild-type protein to KD value with respect to KRAS) ([2]; KD ratio NRAS/KRAS, GDP-bound wild-type proteins): A (a compound having 10 or more and less than 20 is denoted as A)
3 | CCCOC[C@H]1C(=O)N[C@@H]([C@@H](C)OCC)C(=O)N(C)CC(=O)N(C)[C@H]2C/C=C\CCN(C2=O)[C@@H](Cc2ccc(C)cc2)C(=O)N(C)CC(=O)N[C@@H](CCc2cc(F)c(C(F)(F)F)c(F)c2)C(=O)N2C[C@@H](C)C[C@H]2C(=O)NC2(CC(C)(C)C2)C(=O)N(C)[C@@H](C2CCCC2)C(=O)N(C)[C@H](C(=O)N(C)CC)CC(=O)N1C [PP2424] |  |  | A (a compound having 10 or more and less than 20 is denoted as A) | A (a compound having 10 or more and less than 20 is denoted as A) | 
4 | CCC[C@H]1C(=O)N[C@@H](C(CC)CC)C(=O)N(C)CC(=O)N(C)[C@H]2C/C=C\CCN(C2=O)[C@@H](Cc2ccc(C)cc2)C(=O)N(C)CC(=O)N[C@@H](CCc2ccc(C(F)(F)F)c(Cl)c2)C(=O)N2C[C@H](OCC)C[C@H]2C(=O)NC2(CC(C)(C)C2)C(=O)N(C)[C@@H](CC(C)(C)C)C(=O)N(C)[C@H](C(=O)N(C)C)CC(=O)N1C [PP2207] |  |  | A (a compound having 10 or more and less than 20 is denoted as A) | A (a compound having 10 or more and less than 20 is denoted as A) | 
5 | CCO[C@@H]1C[C@H]2C(=O)NC3(CCC3)C(=O)N(C)[C@@H](C3CCCC3)C(=O)N(C)[C@H](C(=O)N3CCOCC3)CC(=O)N(C)[C@@H](CC3CCCCC3)C(=O)N[C@@H]([C@@H](C)CC)C(=O)N(C)CC(=O)N(C)[C@H]3CCCCN(C3=O)[C@@H](Cc3ccc(C(F)(F)F)cc3)C(=O)N(C)CC(=O)N[C@@H](CCc3cc(F)c(C(F)(F)F)c(F)c3)C(=O)N2C1 [PP0716] | B (a compound having 3 or more and less than 10 is denoted as B) | C (A compound having a KD ratio of 0.1 or more and less than 3 is denoted as C) |  |  | 
6 | CCO[C@@H]1C[C@H]2C(=O)NC3(CC(C)(C)C3)C(=O)N(C)[C@@H](C3CCCC3)C(=O)N(C)[C@H](C(=O)N(C)CC)CC(=O)N(C)[C@@H](COC)C(=O)N[C@@H]([C@@H](C)CC)C(=O)N(C)CC(=O)N(C)[C@H]3C/C=C\CCN(C3=O)[C@@H](Cc3ccc(C)cc3)C(=O)N(C)CC(=O)N[C@@H](CCc3cc(F)c(C(F)(F)F)c(F)c3)C(=O)N2C1 [PP2396] |  |  | A (a compound having 10 or more and less than 20 is denoted as A) | A (a compound having 10 or more and less than 20 is denoted as A) | 
7 | CCCN1C(=O)CN(C)C(=O)CN(C)C(=O)[C@H]([C@@H](C)CC)NC(=O)[C@H](CC(C)C)N(C)C(=O)C[C@@H](C(=O)N2C3CCC2COC3)N(C)C(=O)[C@H](C2CCCC2)N(C)C(=O)C2(CCCC2)NC(=O)[C@@H]2CCCN2C(=O)[C@H](CCc2ccc(C(F)(F)F)c(Cl)c2)NC(=O)CN(C)C(=O)[C@@H]1Cc1ccc(C(F)(F)F)cc1 [PP0173] ([NMeL]I[Sar][Sar][NPrPhe(4-CF3)][Sar][hPhe(3-Cl-4-CF3)]P[Ac5c][NMeGly(cPent)][NMeD]-{3Oxa8azabicyclo(3.2.1)octane}; lactam N-11) |  |  |  |  | HRAS/KRAS (ratio of KD for GDP-bound HRAS wild-type to KD for KRAS) ([1]; KD ratio HRAS/KRAS): C (A compound having a KD ratio of 0.1 or more and less than 3 is denoted as C); NRAS/KRAS (ratio of KD for GDP-bound NRAS wild-type to KD for KRAS) ([2]; KD ratio NRAS/KRAS): B (a compound having 3 or more and less than 10 is denoted as B)
8 | CCO[C@@H]1C[C@H]2C(=O)NC3(CC(C)(C)C3)C(=O)N(C)[C@@H](C(CC)CC)C(=O)N(C)[C@H](C(=O)N3CCCC3)CC(=O)N(C)[C@@H](C)C(=O)N[C@@H]([C@@H](C)CC)C(=O)N(C)CC(=O)N(C)[C@H]3C/C=C\CCN(C3=O)[C@@H](Cc3ccc(C(F)(F)F)cc3)C(=O)N(C)CC(=O)N[C@@H](CCc3ccc(C(F)(F)F)c(OC)c3)C(=O)N2C1 [PP2163] |  |  | A (a compound having 10 or more and less than 20 is denoted as A) | A (a compound having 10 or more and less than 20 is denoted as A) | 
9 | CC[C@H](C)[C@@H]1NC(=O)[C@H](CC(C)C)N(C)C(=O)C[C@@H](C(=O)N2CCOCC2)N(C)C(=O)[C@H](C2CCCC2)N(C)C(=O)C2(CCCC2)NC(=O)[C@@H]2C[C@H](OC)CN2C(=O)[C@H](CCc2cc(F)c(C(F)(F)F)c(F)c2)NC(=O)CN(C)C(=O)[C@H](Cc2ccc(C(F)(F)F)cc2)N2CCCC[C@@H](C2=O)N(C)C(=O)CN(C)C1=O [PP0557] | B (a compound having 3 or more and less than 10 is denoted as B) | B (a compound having 3 or more and less than 10 is denoted as B) |  |  | 
10 | CCC[C@H]1C(=O)N[C@@H]([C@@H](C)CC)C(=O)N(C)CC(=O)N(C)[C@H]2C/C=C\CCN(C2=O)[C@@H](Cc2ccc(C(F)(F)F)cc2)C(=O)N(C)CC(=O)N[C@@H](CCc2cc(F)c(C(F)(F)F)c(F)c2)C(=O)N2C[C@H](OCC)C[C@H]2C(=O)NC2(CC(F)(F)C2)C(=O)N(C)[C@@H](C2CCCC2)C(=O)N(C)[C@H](C(=O)N(C)CCC)CC(=O)N1C [PP1736] |  |  |  |  | HRAS/KRAS (ratio of KD value for HRAS to KD value for KRAS) ([1]; KD ratio, GDP-bound HRAS wild-type vs GDP-bound KRAS wild-type): A (a compound having 10 or more and less than 20 is denoted as A); NRAS/KRAS (ratio of KD value for NRAS to KD value for KRAS) ([2]; KD ratio, GDP-bound NRAS wild-type vs GDP-bound KRAS wild-type): A (a compound having 10 or more and less than 20 is denoted as A)
11 | CC[C@H](C)[C@@H]1NC(=O)[C@H](CC(C)C)N(C)C(=O)C[C@@H](C(=O)N2CCOCC2)N(C)C(=O)[C@H](C2CCCC2)N(C)C(=O)C2(CCCC2)NC(=O)[C@@H]2CCCN2C(=O)[C@H](CCc2cc(F)c(C(F)(F)F)c(F)c2)NC(=O)CN(C)C(=O)[C@H](Cc2ccc(C(F)(F)F)cc2)N2CCCC[C@@H](C2=O)N(C)C(=O)[C@H](CC)N(C)C1=O [PP0551] | B (a compound having 3 or more and less than 10 is denoted as B) | C (A compound having a KD ratio of 0.1 or more and less than 3 is denoted as C) |  |  | 
